TGI and GI50 data for 19 compounds are collected here from PubChem BioAssay (NCI).

SMILES strings stand for the structures. Where “and” joins values, the source holds several entries; their conditions need not be identical. Equal values may be shown once.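 1) Cells in 96-well plates. 2) Compound, 48 h, 5 concentrations. 3) Linear interpolation between surrounding doses. 4) Unreached endpoint = highest concentration. GI50 is the concentration that inhibits growth by half. TGI denotes the concentration required for complete inhibition of growth.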 Some results are limits rather than exact numbers.

Some test systems named below: KM20L2 colon; DMS 273 small cell lung; SNB-78 CNS; LXFL 529 NSCLC; HOP-18 NSCLC; M19-MEL melanoma; RXF-631 renal; XF 498 CNS; MDA-N; SN12K1 renal; P388 leukemia.
Holding throughout (experiment): NCI tumour cell line growth inhibition, 48 h

Turning to `CCN(CC)c1c(C(=O)/C=C/c2ccc(OC)cc2)c(-c2ccccc2)nn(C)c1=O`, the TGI is 33.1 µM with KM20L2 colon; 5.13 µM in the test with DMS 273 small cell lung; more than 100 µM in the test with SNB-78 CNS; more than 100 µM with LXFL 529 NSCLC; 51.7 µM in the test with HOP-18 NSCLC; more than 100 µM with M19-MEL melanoma. The compound also registered a TGI with RXF-631 renal of more than 100 µM.

In the case of `CN1C(=Nc2ccccc2)SC1=Nc1ccccc1`, the TGI was more than 100 µM in the test on DMS 273 small cell lung; more than 100 µM in the test with SNB-78 CNS; more than 100 µM in the test on LXFL 529 NSCLC; 73.3 µM with XF 498 CNS; more than 100 µM in the test with HOP-18 NSCLC; 65.2 µM with M19-MEL melanoma.

In the case of `O=C(O)C(/C=C/c1ccccc1)c1ccccc1` (stereo unspecified), the TGI with MDA-N was more than 100 µM.

With `Oc1ccccc1/C=C/c1csnn1`, the TGI in the test on KM20L2 colon, with DMS 273 small cell lung, in the test with SNB-78 CNS, in the test on LXFL 529 NSCLC, with XF 498 CNS and in the test with HOP-18 NSCLC was more than 100 µM throughout. For the same compound, the TGI in the test on M19-MEL melanoma and with RXF-631 renal was more than 100 µM in each case.

With `CC(=O)CC(=O)OC1CC(C)CCC1C(C)C` (stereo unspecified), the TGI with DMS 273 small cell lung, in the test on SNB-78 CNS, in the test with LXFL 529 NSCLC, with XF 498 CNS, in the test on M19-MEL melanoma and with RXF-631 renal was more than 100 µM each time.

For `COc1c(C)c2c(c(O)c1C/C=C(\C)CCC(=O)O)C(=O)OC2`, the TGI in the test with DMS 273 small cell lung, in the test with MDA-N, in the test with LXFL 529 NSCLC, in the test with HOP-18 NSCLC and in the test on M19-MEL melanoma was more than 100 µM throughout.

On to `CP1(=O)CCCCC1`, for which the TGI with KM20L2 colon, with DMS 273 small cell lung, with SNB-78 CNS, in the test on LXFL 529 NSCLC, with XF 498 CNS and in the test on HOP-18 NSCLC was more than 100 µM throughout. This compound also registered a TGI in the test on M19-MEL melanoma of more than 100 µM.

As for `Cc1ccc(S(=O)(=O)OC2CSS(=O)CC2OS(=O)(=O)c2ccc(C)cc2)cc1` (stereo unspecified), the TGI with KM20L2 colon came to 32.6 µM; with DMS 273 small cell lung it was 35.3 µM; with SNB-78 CNS it was 58.9 µM; with LXFL 529 NSCLC, 27.7 µM; in the test with XF 498 CNS it was 26.6 µM; in the test with HOP-18 NSCLC, 37.6 µM. Besides, the TGI in the test with M19-MEL melanoma was found to be 30.5 µM; in the test on RXF-631 renal, 30.4 µM.

Turning to `Cc1cc(O)c(C(C)C)cc1S(=O)(=O)O` (tested in a mixture with another compound), the TGI with KM20L2 colon, in the test with DMS 273 small cell lung, in the test with SNB-78 CNS, in the test on LXFL 529 NSCLC and with M19-MEL melanoma was more than 100 µM each time.

With `O=[N+]([O-])c1cc(C(F)(F)F)cc([N+](=O)[O-])c1CCl`, the TGI came out at 8.72 µM in the test with KM20L2 colon; 2.62 µM with DMS 273 small cell lung; 10.6 µM in the test with SNB-78 CNS; 0.639 µM with LXFL 529 NSCLC; 3.6 µM in the test on HOP-18 NSCLC; 3.64 µM in the test on M19-MEL melanoma. In the test on RXF-631 renal, this compound returned a TGI of 10.4 µM.

`Nc1ccnc(=O)[nH]1`: the TGI in the test with KM20L2 colon, in the test on DMS 273 small cell lung, in the test with SNB-78 CNS, in the test with LXFL 529 NSCLC, in the test on XF 498 CNS and with HOP-18 NSCLC was more than 100 µM each time. The TGI in the test on M19-MEL melanoma and with RXF-631 renal was more than 100 µM each time.

Take `COc1cc(C[C@H]2c3cc(OC)c(OC)cc3CCN2C)c(Oc2cc3c(cc2OC)-c2c(OC)c(OC)cc4c2[C@H](C3)N(C)CC4)cc1OC`: the TGI was 15.4 µM in the test on SN12K1 renal; 13.5 µM and 7.75 µM with KM20L2 colon; 27.6 µM and 28.1 µM in the test on DMS 273 small cell lung; 13.1 µM in the test with MDA-N; 23.6 µM in the test on LXFL 529 NSCLC; 22 µM with P388 leukemia. The TGI is 16.4 µM and 16.3 µM with XF 498 CNS; 40.9 µM and 29.9 µM in the test on HOP-18 NSCLC; 16.8 µM and 24.6 µM in the test on M19-MEL melanoma; 19.8 µM with RXF-631 renal. For the same compound, the GI50 with KM20L2 colon was 2.32 µM; with DMS 273 small cell lung, 14.6 µM; in the test with XF 498 CNS, 6.8 µM; in the test on HOP-18 NSCLC it was 20.1 µM and 15.8 µM; with M19-MEL melanoma, 11.9 µM.

For the compound `COC(=O)/C(C)=C(/CCC1(C)OCCO1)O[Si](C)(C)C`, the TGI in the test on KM20L2 colon, with DMS 273 small cell lung, with SNB-78 CNS, in the test on LXFL 529 NSCLC, in the test on XF 498 CNS and with HOP-18 NSCLC was more than 100 µM in each case. The compound also displayed a TGI in the test with M19-MEL melanoma of more than 100 µM.

In the case of `CCOC(=O)N1CCN(C=S)CC1`, the TGI in the test on KM20L2 colon, in the test with DMS 273 small cell lung, in the test with SNB-78 CNS, in the test with LXFL 529 NSCLC, in the test with HOP-18 NSCLC and with M19-MEL melanoma was more than 100 µM in each case. Moreover, the TGI in the test on RXF-631 renal was more than 100 µM.

In the test on MDA-N, `Cc1ccc(S(=O)(=O)N/N=C/c2c(O)ccc3ccccc23)cc1` showed a TGI of more than 100 µM.

As to `COc1cc2ccc(/C=C\[N+](=O)[O-])cc2cc1OC`, in the test on MDA-N, the TGI was 5.78 µM.

In turn, `COC(=O)C1(C)CCC(c2ccc(C)cc2)=C(CC(=O)O)C1` (stereo unspecified) had a TGI with MDA-N of more than 100 µM.

Turning to `CCc1cc(C(=O)OC)cn1C(=N)c1ccc(Cl)cc1`, the TGI with KM20L2 colon, with DMS 273 small cell lung, in the test on SNB-78 CNS, with LXFL 529 NSCLC, in the test with XF 498 CNS and with HOP-18 NSCLC was more than 100 µM each time. In the test on M19-MEL melanoma, the TGI is more than 100 µM.

Turning to `COc1cc(OC(=O)c2ccccc2)cc2c1C(=O)C=CC2=O`, the TGI in the test on KM20L2 colon was more than 100 µM; in the test on DMS 273 small cell lung it was 40.5 µM; with SNB-78 CNS, 41.4 µM; in the test on MDA-N, 18.8 µM; in the test with LXFL 529 NSCLC, 25.5 µM; with XF 498 CNS, 31.4 µM. The values for the TGI in the test on HOP-18 NSCLC, in the test with M19-MEL melanoma and in the test with RXF-631 renal were 41.5 µM, 25.9 µM and 41.5 µM, respectively.
